Assay results taken from the NIST ThermoML archive (doi:10.1016/j.jct.2007.07.002).
“And” between values parts separate entries of the source, which are not always exact repeats. Equal values may be shown once.

Details: Gas, double Helmholtz acoustic resonator

FC1(F)C(F)(F)C(F)(F)C1(F)F [octafluorocyclobutane]
Details	kinematic viscosity [m2/s]	speed of sound
300 K, 160.13 kPa	8.54e-07	109.85 m/s
300 K, 180.38 kPa	7.62e-07	109.17 m/s
300 K, 209.45 kPa	6.47e-07	108.13 m/s
300 K, 239.58 kPa	5.55e-07	107.04 m/s
310 K, 167.11 kPa	1.04e-06	111.91 m/s
310 K, 212.21 kPa	6.65e-07	110.44 m/s
310 K, 259.63 kPa	5.45e-07	108.88 m/s
310 K, 319.54 kPa	4.4e-07	106.84 m/s
310 K, 359.99 kPa	4.21e-07	105.47 m/s
315 K, 195.64 kPa	7.57e-07	112.23 m/s
315 K, 234.75 kPa	6.39e-07	111.1 m/s
315 K, 272.93 kPa	5.38e-07	109.92 m/s
315 K, 312.27 kPa	4.61e-07	108.66 m/s
315 K, 357.7 kPa	3.99e-07	107.16 m/s
315 K, 410.27 kPa	3.42e-07	105.34 m/s
320 K, 122.6 kPa	1.12e-06	115.18 m/s
320 K, 172.92 kPa	9.2e-07	113.83 m/s
320 K, 222.82 kPa	6.6e-07	112.47 m/s
320 K, 274.43 kPa	5.38e-07	111.03 m/s
320 K, 326.85 kPa	4.48e-07	109.44 m/s
320 K, 380.03 kPa	3.92e-07	107.76 m/s
320 K, 482.22 kPa	2.95e-07	104.31 m/s
330 K, 117.49 kPa	1.43e-06	117.54 m/s
330 K, 189.29 kPa	8.81e-07	115.79 m/s
330 K, 215.35 kPa	7.77e-07	115.12 m/s
330 K, 288.39 kPa	5.63e-07	113.25 m/s
330 K, 290.78 kPa	5.67e-07	113.11 m/s
330 K, 368.85 kPa	4.3e-07	111.06 m/s
330 K, 376.53 kPa	4.2e-07	110.78 m/s
330 K, 450.7 kPa	3.45e-07	108.71 m/s
330 K, 465.61 kPa	3.3e-07	108.18 m/s
330 K, 534.61 kPa	2.83e-07	106.13 m/s
330 K, 536.09 kPa	2.8e-07	106 m/s
330 K, 621.46 kPa	2.37e-07	103.15 m/s and 103.25 m/s
345.04 K, 244.86 kPa	7.3e-07	117.72 m/s
345.04 K, 347.35 kPa	5.14e-07	115.42 m/s
345.04 K, 445.79 kPa	3.86e-07	113.12 m/s
345.04 K, 553.32 kPa	3.05e-07	110.35 m/s
345.04 K, 652.37 kPa	2.52e-07	107.68 m/s
345.04 K, 772.66 kPa	2.06e-07	104.17 m/s
345.04 K, 881.89 kPa	1.76e-07	100.69 m/s
360 K, 216.1 kPa	9.15e-07	121.47 m/s
360 K, 407.3 kPa	4.74e-07	117.75 m/s
360 K, 609.73 kPa	3.2e-07	113.46 m/s
360 K, 802.73 kPa	2.19e-07	108.94 m/s
360 K, 1012.2 kPa	1.68e-07	103.47 m/s
360 K, 1203.3 kPa	1.35e-07	97.73 m/s
375 K, 183.85 kPa	1.12e-06	124.97 m/s
375 K, 378.87 kPa	5.53e-07	121.72 m/s
375 K, 568.99 kPa	3.54e-07	118.34 m/s
375 K, 758.63 kPa	2.59e-07	114.75 m/s
375 K, 960.1 kPa	2.05e-07	110.61 m/s
375 K, 1188.2 kPa	1.56e-07	105.48 m/s
375 K, 1402 kPa	1.28e-07	100.08 m/s
375 K, 1620.4 kPa	1.06e-07	93.75 m/s

F[Si](F)(F)F [silicon tetrafluoride]
Details	kinematic viscosity [m2/s]	speed of sound [m/s]
215 K, 198.15 kPa	1.06e-06	136.99
215 K, 283.66 kPa	7.32e-07	135.34
215 K, 378.5 kPa	5.24e-07	133.42
215 K, 461.43 kPa	4.37e-07	131.7
215 K, 551.52 kPa	3.6e-07	129.72
215 K, 649.39 kPa	3.03e-07	127.46
215 K, 746.64 kPa	2.59e-07	125.06
230 K, 271.49 kPa	8.88e-07	141.02
230 K, 424.62 kPa	5.63e-07	138.59
230 K, 578.31 kPa	3.98e-07	136.01
230 K, 742.99 kPa	2.84e-07	133.07
230 K, 897.83 kPa	2.5e-07	130.19
230 K, 1088.3 kPa	2.9e-07	126.35
230 K, 1251 kPa	1.76e-07	122.68
245 K, 248.32 kPa	1.09e-06	146.4
245 K, 393.67 kPa	6.6e-07	144.55
245 K, 542.46 kPa	4.92e-07	142.59
245 K, 703.75 kPa	3.7e-07	140.39
245 K, 873.41 kPa	2.95e-07	138
245 K, 1034.5 kPa	2.46e-07	135.63
245 K, 1220 kPa	2.08e-07	132.78
245 K, 1434.3 kPa	1.74e-07	129.26
245 K, 1599.8 kPa	1.55e-07	126.37
245 K, 1777.8 kPa	1.4e-07	123.04
245 K, 1958.5 kPa	1.25e-07	119.34
260 K, 206.14 kPa	1.34e-06	151.46
260 K, 410.06 kPa	7.49e-07	149.46
260 K, 617.98 kPa	4.82e-07	147.22
260 K, 830.76 kPa	3.54e-07	144.88
260 K, 1047.1 kPa	2.74e-07	142.41
260 K, 1252 kPa	2.3e-07	140.01
260 K, 1498.2 kPa	1.91e-07	137.01
260 K, 1794.3 kPa	1.58e-07	133.23
260 K, 2026.6 kPa	1.39e-07	130.08
260 K, 2282.2 kPa	1.25e-07	126.45
260 K, 2541.7 kPa	1.1e-07	122.51
274.58 K, 524.86 kPa	6.36e-07	153.14
274.58 K, 642.96 kPa	5.09e-07	152.03
274.58 K, 744.26 kPa	4.24e-07	151.15
274.58 K, 845.26 kPa	3.88e-07	150.26
274.58 K, 947.16 kPa	3.48e-07	149.34
274.58 K, 1048.3 kPa	3.11e-07	148.41
274.58 K, 1150.3 kPa	2.86e-07	147.47
274.58 K, 1252.2 kPa	2.59e-07	146.53
274.58 K, 1353.8 kPa	2.42e-07	145.57
274.58 K, 1454.6 kPa	2.28e-07	144.62
274.58 K, 1556 kPa	2.09e-07	143.64
274.58 K, 1657.9 kPa	2.01e-07	142.67
274.58 K, 1764.4 kPa	1.82e-07	141.62
274.58 K, 1878.1 kPa	1.7e-07	140.5
274.58 K, 1998.5 kPa	1.64e-07	139.34
274.58 K, 2141.9 kPa	1.52e-07	137.92
274.58 K, 2244.2 kPa	1.42e-07	136.85
274.58 K, 2354.1 kPa	1.36e-07	135.74
274.58 K, 2474 kPa	1.31e-07	134.5
274.58 K, 2776.6 kPa	1.15e-07	131.33
274.58 K, 2951.3 kPa	1.08e-07	129.47
300 K, 386.04 kPa	1.14e-06	161.89
300 K, 581.57 kPa	7.42e-07	160.87
300 K, 775.29 kPa	5.2e-07	159.49
300 K, 975.51 kPa	4.04e-07	158.17
300 K, 1173.9 kPa	3.25e-07	156.88
300 K, 1443.4 kPa	2.69e-07	155.17
300 K, 1648.7 kPa	2.37e-07	153.86
300 K, 1872.1 kPa	2.11e-07	152.44
300 K, 2157.9 kPa	1.71e-07	150.6
300 K, 2526.1 kPa	1.53e-07	148.3
324.96 K, 582.54 kPa	8.84e-07	168.12
324.96 K, 731.36 kPa	6e-07	167.21
324.96 K, 1070.8 kPa	4.22e-07	165.71
324.96 K, 1257.4 kPa	3.6e-07	164.87
324.96 K, 1487.6 kPa	3.1e-07	163.84
324.96 K, 1769 kPa	2.59e-07	162.6
324.96 K, 1936.2 kPa	2.42e-07	161.88
324.96 K, 2114.4 kPa	2.11e-07	161.1
324.96 K, 2322.2 kPa	1.99e-07	160.23
324.96 K, 2541 kPa	1.84e-07	159.34

FS(F)(F)(F)(F)F [sulfur hexafluoride]
273.16 K
Details	kinematic viscosity [m2/s]	speed of sound [m/s]
290.38 kPa	7.19e-07	126.14
386.66 kPa	5.33e-07	124.46
492.4 kPa	4.1e-07	122.54
602.05 kPa	3.28e-07	120.45
712.29 kPa	2.72e-07	118.25
808.73 kPa	2.35e-07	116.21
903.28 kPa	2.24e-07	114.14
1000.5 kPa	1.81e-07	111.81
